Like-named read-outs stand apart in the source and are kept apart here.
What was measured:
[1] = test system: Phosphorylation of ERK1/2 in MIA PaCa-2 cells; test: Phospho-ERK1/2 MSD assay in MIA PaCa-2 cells; assay type: cell-based; conditions: read-out: p-ERK IC50 (2 h; MIA PaCa-2), 2 h compound treatment
Method in brief: (§1)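 In the procedure, cells were plated a day ahead at 25,000 per well. Next, a dilution series of compound in growth medium was added for 2 or 4 h. EGF (10 ng/mL) stimulation for 10 min preceded washing and RIPA lysis. Lysate phospho-ERK1/2 was read by MSD, with IC50 derived by 4-parameter logistic analysis.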

[2] = test system: Phosphorylation of ERK1/2 in A549 cells; test: Phospho-ERK1/2 MSD assay in A549 cells; assay type: cell-based; conditions: Homo sapiens, A549, 2 h, read-out: p-ERK IC50 (2 h; A549), 2 h compound treatment
Method in brief: as §1

[3] = molecular target: GDP-bound KRAS protein (aa 1-169), containing both G12C and C118A amino acid substitutions (Homo sapiens, UniProt P01116, C118A/G12C); test: Coupled nucleotide exchange assay (SOS-mediated, AlphaScreen); assay type: biochemical; conditions: 5 min compound pre-incubation
Chain of GDP-bound KRAS protein (aa 1-169), containing both G12C and C118A amino acid substitutions (P01116 1-169 isoform P01116-2 G12C/C118A): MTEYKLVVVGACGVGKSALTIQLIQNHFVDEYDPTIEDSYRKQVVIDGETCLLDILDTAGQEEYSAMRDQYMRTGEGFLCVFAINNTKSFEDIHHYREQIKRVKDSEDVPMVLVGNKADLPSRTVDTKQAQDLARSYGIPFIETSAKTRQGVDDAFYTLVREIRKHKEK

IC50 ([1]; Homo sapiens, MIA PaCa-2, 2 h) [nM]	IC50 [2] [nM]	Coupled exchange IC50 (5 min) [3]	IC50 [1] [nM]	SMILES	IC50 ([3]; read-out: Coupled exchange IC50 (5 min)) [nM]
2380	≥ 10000	0.779 | nda μM		C=CC(=O)N1CCN(c2nc(=O)n(-c3c(C)ncnc3C)c3nc(-c4c(O)cccc4F)c(Cl)cc23)[C@@H](C)C1 [Example 54-48, 6-chloro-1-(4,6-dimethyl-5-pyrimidinyl)-7-(2-fluoro-6-hydroxyphenyl)-4-((2S)-2-methyl-4-(2-propenoyl)-1-piperazinyl) pyrido[2,3-d]pyrimidin-2(1H)-one]	
2900	≥ 10000	0.724 | nda μM		C=CC(=O)N1CCN(c2nc(=O)n(-c3c(C)cncc3C)c3nc(-c4c(O)cccc4F)c(Cl)cc23)[C@@H](C)C1 [Example 54-41, 6-chloro-1-(3,5-dimethyl-4-pyridinyl)-7-(2-fluoro-6-hydroxyphenyl)-4-((2S)-2-methyl-4-(2-propenoyl)-1-piperazinyl) pyrido[2,3-d]pyrimidin-2(1H)-one]	
387	≥ 10000	0.809 | nda μM		C=CC(=O)N1CCN(c2nc(=O)n(-c3ccccc3C(C)C)c3nc(-c4cc(OC)ccc4Br)c(Cl)cc23)[C@@H](C)C1 [Example 60-26, 7-(2-bromo-5-methoxyphenyl)-6-chloro-4-((2S)-2-methyl-4-(2-propenoyl)-1-piperazinyl)-1-(2-(2-propanyl)phenyl)pyrido[2,3-d]pyrimidin-2(1H)-one]	
63	≥ 10000	0.08 | nda μM		C=CC(=O)N1CCN(c2nc(=O)n(-c3c(C4CC4)ncnc3C3CC3)c3nc(-c4ccccc4F)c(Cl)cc23)[C@@H](C)C1 [Example 60-11, 6-chloro-1-(4,6-dicyclopropyl-5-pyrimidinyl)-7-(2-fluorophenyl)-4-((2S)-2-methyl-4-(2-propenoyl)-1-piperazinyl)pyrido[2,3-d]pyrimidin-2(1H)-one]	
101	≥ 10000	0.139 | nda μM		C=CC(=O)N1CCN(c2nc(=O)n(-c3ccccc3C(C)C)c3nc(-c4cc(O)ccc4F)c(Cl)cc23)[C@@H](C)C1 [Example 54-88, 6-chloro-7-(2-fluoro-5-hydroxyphenyl)-4-((2S)-2-methyl-4-(2-propenoyl)-1-piperazinyl)-1-(2-(2-propanyl)phenyl)pyrido [2,3-d]pyrimidin-2(1H)-one]	

The next lines start with the compound.

SMILES	IC50 ([1]; Homo sapiens, MIA PaCa-2, 2 h) [nM]	IC50 [2] [nM]	Coupled exchange IC50 (5 min) [3]	IC50 [1] [nM]	IC50 ([3]; read-out: Coupled exchange IC50 (5 min)) [nM]
C=CC(=O)N1CCN(c2nc(=O)n(-c3nccnc3C(C)(C)C)c3nc(-c4c(O)cccc4F)c(Cl)cc23)[C@@H](C)C1 (single isomer, unassigned) [Example 55-23-2]	77	≥ 10000	0.062 | nda μM		
C=CC(=O)N1CCN(c2nc(=O)n(-c3ccccc3C(C)C)c3nc(N4CCCCC4)c(Cl)cc23)[C@@H](C)C1 (single isomer, unassigned) [Example 69-1-2]	1020	≥ 10000	0.604 | nda μM		
C=CC(=O)N1CCN(c2nc(=O)n(-c3cccnc3C(C)C)c3nc(-c4ccccc4F)c(Cl)cc23)[C@@H](C)C1 (single isomer, unassigned) [Example 54-9-1]		≥ 10000	0.302 | nda μM	76	
C=CC(=O)N1CCN(c2nc(=O)n(-c3ncccc3C(C)C)c3nc(-c4c(O)cccc4F)c(Cl)cc23)[C@@H](C)C1 [Example 54-57, 6-chloro-7-(2-fluoro-6-hydroxyphenyl)-4-((2S)-2-methyl-4-(2-propenoyl)-1-piperazinyl)-1-(3-(2-propanyl)-2-pyridinyl) pyrido[2,3-d]pyrimidin-2(1H)-one]	53	≥ 10000			83
C=CC(=O)N1CCN(c2nc(=O)n(-c3nccn3C(C)C)c3cc(-c4ccccc4F)c(Cl)cc23)[C@@H](C)C1 [Example 91, 6-Chloro-7-(2-fluorophenyl)-4-((2S)-2-methyl-4-(2-propenoyl)-1-piperazinyl)-1-(1-(2-propanyl)-1H-imidazol-2-yl)-2(1H)-quinazolinone]	312	≥ 10000	0.2 | nda μM		
C=CC(=O)N1CCN(c2nc(=O)n(-c3c(C)cc(N(C)C)cc3C(C)C)c3nc(-c4ccccc4F)c(Cl)cc23)[C@@H](C)C1 (single isomer, unassigned) [Example 55-16-2]	123	≥ 10000	0.039 | nda μM		
